We go through 19 compounds from US11986480B2, “Heterocyclic compound” (TOHOKU UNIVERSITY, priority 2017, dated 2024).

Test [1] concerns EmGFP-HaloTag. The test is described as follows: Test Example 2: HeLa cells transiently overexpressing EmGFP-HaloTag, Western blot GFP/actin (Testing Method B). The test is classed as cell-based. Particulars: 24 hours, 1 or less = degradation promoted. The procedure:
Test Example 2: Evaluation Using Cell Transiently Overexpressing EmGFP-HaloTag (Testing Method B)
HeLa cells were inoculated to Dulbecco's Modified Eagle Medium (DMEM) and cultured for 24 hours. Cells overexpressing EmGFP-HaloTag were obtained by transfection with a plasmid pCMV-EmGFP-HaloTag encoding EmGFP-HaloTag. On the next day, a test compound (specifically, compounds of Examples 8, 12, 16, 21 to 23, 28, 30 and 31) was added thereto at the final concentration shown in Table 2, followed by incubation for 24 hours under conditions of 37° C./5% CO2. The cells were washed with PBS three times and treated with a cell lysis solution containing a proteolytic enzyme inhibitor to obtain a cell extract. The cell extract was subjected to SDS-PAGE. After the electrophoresis, GFP and actin were detected by Western blot. The ratio of the GFP/actin value of the drug-treated cells to the GFP/actin value of a control group in drug-untreated cells was regarded as an activity value. A value of 1 or less represents that degradation of EmGFP-HaloTag was promoted.

The test system of test [2] is EmGFP-HaloTag. The test is described as follows: Test Example 1: HeLa cells stably expressing EmGFP-HaloTag, Western blot GFP/actin (Testing Method A). In kind it is cell-based. The settings on record: 24 hours, 1 or less = degradation promoted. How it is done: Test Example 1: Evaluation Method Using Cell Stably Expressing EmGFP-HaloTag (Testing Method A)
HeLa cells stably expressing EmGFP-HaloTag were inoculated to Dulbecco's Modified Eagle Medium (DMEM) and cultured for 24 hours. Then, a test compound (specifically, compounds of Examples 1 to 7, 9 to 11, 13 to 15, 17 to 20, 24 to 27, 29, 32 to 33, 36 to 42, 44 to 46 and 56) was added thereto at the final concentration shown in Table 2, followed by incubation for 24 hours under conditions of 37° C./5% CO2. The cells were washed with PBS three times and treated with a cell lysis solution containing a proteolytic enzyme inhibitor to obtain a cell extract. The cell extract was subjected to SDS-PAGE. After the electrophoresis, GFP and actin were detected by Western blot. The ratio of the GFP/actin value of the drug-treated cells to the GFP/actin value of a control group in drug-untreated cells was regarded as an activity value. A value of 1 or less represents that degradation of EmGFP-HaloTag was promoted.

Counter-ions that a name gives are not always drawn.

With `CC(=O)N[C@@H](CSc1nc2c(=O)[nH]c(N)nc2n1C1CCCC1)C(=O)NCCOCCOCCOCCOCCOCCCCCCCl` [Example 12, N^2-Acetyl-S-(2-amino-9-cyclopentyl-6-oxo-6,9-dihydro-1H-purin-8-yl)-N-(21-chloro-3,6,9,12,15-pentaoxahenicos-1-yl)-L-cysteinamide], the “Activity value (GFP/actin of drug-treated cells relative to drug-untreated control)” value in test [1] (10 uM) amounted to 0.45. Regarding `CC(=O)N[C@@H](CSc1nc2c(=O)n(C)c(N)nc2n1Cc1ccc(F)cc1)C(=O)NCCOCCOCCOCCOCCOCCCCCCCl` [Example 30, N^2-Acetyl-S-(2-amino-9-(4-fluorobenzyl)-1-methyl-6-oxo-6,9-dihydro-1H-purin-8-yl)-N— (21-chloro-3,6,9,12,15-pentaoxahenicos-1-yl)-L-cysteinamide], the “Activity value (GFP/actin of drug-treated cells relative to drug-untreated control)” value in test [1] (1 uM) came out at 0.2. The same measure, in the same setting: the figure for `CC(=O)N[C@@H](CSc1cn(Cc2ccc(F)cc2)c(=O)nc1N)C(=O)NCCOCCOCCOCCOCCOCCCCCCCl` [Example 21, N^2-Acetyl-S-(4-amino-1-(4-fluorobenzyl)-2-oxo-1,2-dihydropyrimidin-5-yl)-N-(21-chloro-3,6,9,12,15-pentaoxahenicos-1-yl)-L-cysteinamide Trifluoroacetate] is 0.3. On to `Nc1nc2c(nc(CCCOCCOCCOCCOCCOCCOCCCCCCCl)n2Cc2ccc(F)cc2)c(=O)[nH]1` [Example 31, 2-Amino-8-(25-chloro-4,7,10,13,16,19-hexaoxapentacos-1-yl)-9-(4-fluorobenzyl)-1,9-dihydro-6H-purin-6-one], for which the “Activity value (GFP/actin of drug-treated cells relative to drug-untreated control)” value in test [1] (1 uM) is on record as 0.4. Consider `CC(=O)N[C@@H](CSc1nc2c(=O)[nH]c(N)nc2n1Cc1cccc(F)c1)C(=O)NCCOCCOCCOCCOCCOCCCCCCCl` [Example 23], for which the “Activity value (GFP/actin of drug-treated cells relative to drug-untreated control)” value in test [1] (1 uM) was 0.7. Consider `CC(=O)N[C@@H](CSc1nc2c(=O)[nH]c(N)nc2n1Cc1ccccc1F)C(=O)NCCOCCOCCOCCOCCOCCCCCCCl` [Example 22, N^2-acetyl-S-(2-amino-9-(2-fluorobonzvl)-6-oxo-6,9-dihydro-1H-purin-8-yl)-N-(21-chloro-3,6,9,12,15-pentaoxahenicos-1-yl)-L-cysteinamide], for which, in test [1] (10 uM), the “Activity value (GFP/actin of drug-treated cells relative to drug-untreated control)” value stood at 0.7.

For the compound `CC(=O)N[C@@H](CSc1nc2cncnc2n1Cc1ccc(F)cc1)C(=O)NCCOCCOCCOCCOCCOCCCCCCCl` [Example 18, N^2-Acetyl-N-(21-chloro-3,6,9,12,15-pentaoxahenicos-1-yl)-S-(9-(4-fluorobenzyl)-9H-purin-8-yl)-L-cysteinamide], the “Activity value (GFP/actin of drug-treated cells relative to drug-untreated control)” value in test [2] (1 uM) amounted to 0.1. Turning to `CC(=O)N[C@@H](CSc1nc2c(=O)[nH]c(N)nc2n1Cc1cccnc1)C(=O)NCCOCCOCCOCCOCCOCCCCCCCl` [Example 41, N^2-acetyl-S-(2-amino-6-oxo-9-(pyridin-3-ylmethyl)-6,9-dihydro-1H-purin-8-yl)-N-(21-chloro-3,6,9,12,15-pentaoxahenicos-1-yl)-L-cysteinamide trifluoroacetic acid salt], the “Activity value (GFP/actin of drug-treated cells relative to drug-untreated control)” value in test [2] (1 uM) is given as 0.5.

Take `CC(=O)N[C@@H](CSc1nc2c(=O)[nH]c(N)nc2n1C1CCCCC1)C(=O)NCCOCCOCCOCCOCCOCCCCCCCl` [Example 28, N^2-acetyl-S-(2-amino-9-cyclohexyl-6-oxo-6,9-dihydro-1H-purin-8-yl)-N-(21-chloro-3,6,9,12,15-pentaoxahenicos-1-yl)-L-cysteinamide]: the “Activity value (GFP/actin of drug-treated cells relative to drug-untreated control)” value in test [1] (1 uM) was determined as 0.4. For `CC(=O)N[C@@H](CSc1nc2c(=O)[nH]c(N)nc2n1Cc1ccc(Cl)cc1)C(=O)NCCOCCOCCOCCOCCOCCCCCCCl` [Example 1, N^2-Acetyl-S-(2-amino-9-(4-chlorobenzyl)-6-oxo-6,9-dihydro-1H-purin-8-yl)-N-(21-chloro-3,6,9,12,15-pentaoxahenicos-1-yl)-L-cysteinamide], in test [2] (10 uM), the “Activity value (GFP/actin of drug-treated cells relative to drug-untreated control)” value is listed as 0.7. For `CC(=O)N[C@@H](CSc1nc2c(=O)n3cc[nH]c3nc2n1Cc1ccc(F)cc1)C(=O)NCCOCCOCCOCCOCCOCCCCCCCl` [Example 44, N^2-Acetyl-N-(21-chloro-3,6,9,12,15-pentaoxahenicos-1-yl)-S-(3-(4-fluorobenzyl)-9-oxo-5,9-dihydro-3H-imidazo[1,2-a]purin-2-yl)-L-cysteinamide], in test [2] (1 uM), the “Activity value (GFP/actin of drug-treated cells relative to drug-untreated control)” value is listed as 0.9. As to `CC(=O)N[C@@H](CSc1c(NCc2ccc(F)cc2)nc(N)[nH]c1=O)C(=O)NCCOCCOCCOCCOCCOCCCCCCCl` [Example 19, N^2-Acetyl-S-(2-amino-4-((4-fluorobenzyl)amino)-6-oxo-1,6-dihydropyrimidin-5-yl)-N-(21-chloro-3,6,9,12,15-pentaoxahenicos-1-yl)-L-cysteinamide Trifluoroacetate], the “Activity value (GFP/actin of drug-treated cells relative to drug-untreated control)” value in test [2] (10 uM) is given as 0.5. As to `CC(=O)N[C@@H](CSc1nc2c(N)nc(N)nc2n1Cc1ccc(F)cc1)C(=O)NCCOCCOCCOCCOCCOCCCCCCCl` [Example 45, N^2-Acetyl-N-(21-chloro-3,6,9,12,15-pentaoxahenicos-1-yl)-S-(2,6-diamino-9-(4-fluorobenzyl)-9H-purin-8-yl)-L-cysteinamide], in test [2] (10 uM), the “Activity value (GFP/actin of drug-treated cells relative to drug-untreated control)” value came out at 0.7. In the case of `Nc1nc2c(nc(NCCC(=O)NCCOCCOCCOCCOCCOCCCCCCCl)n2Cc2ccc(F)cc2)c(=O)[nH]1` [Example 8, N^3-(2-Amino-9-(4-fluorobenzyl)-6-oxo-6,9-dihydro-1H-purin-8-yl)-N-(21-chloro-3,6,9,12,15-pentaoxahenicos-1-yl)-β-alaninamide], in test [1] (1 uM), the “Activity value (GFP/actin of drug-treated cells relative to drug-untreated control)” value was found to be 0.7. As to `Nc1nc2c(nc(SCC(=O)NCCOCCOCCOCCOCCOCCCCCCCl)n2Cc2ccc(F)cc2)c(=O)[nH]1` [Example 7], the “Activity value (GFP/actin of drug-treated cells relative to drug-untreated control)” value in test [2] (5 uM) is 0.79.

Take `Nc1nc2c(nc(CNCCOCCOCCOCCOCCOCCCCCCCl)n2Cc2ccc(F)cc2)c(=O)[nH]1` [Example 32, 2-Amino-8-(23-chloro-5,8,11,14,17-pentaoxa-2-azatricos-1-yl)-9-(4-fluorobenzyl)-1,9-dihydro-6H-purin-6-one]: the “Activity value (GFP/actin of drug-treated cells relative to drug-untreated control)” value in test [2] (100 uM) amounted to 0.7. Same read-out and setting: the figure for `COc1ccc(Cn2c(SC[C@H](NC(C)=O)C(=O)NCCOCCOCCOCCOCCOCCCCCCCl)nc3c(=O)[nH]c(N)nc32)cc1` [Example 38, N^2-acetyl-S-(2-amino-9-(4-methoxybenzyl)-6-oxo-6,9-dihydro-1H-purin-8-yl)-N-(21-chloro-3,6,9,12,15-pentaoxahenicos-1-yl)-L-cysteinamide] is 0.8. Turning to `Nc1nc2c(nc(C#CCOCCOCCOCCOCCOCCOCCCCCCCl)n2Cc2ccc(F)cc2)c(=O)[nH]1` [Example 16, 2-Amino-8-(25-chloro-4,7,10,13,16,19-hexaoxapentacos-1-yn-1-yl)-9-(4-fluorobenzyl)-1,9-dihydro-6H-purin-6-one], the “Activity value (GFP/actin of drug-treated cells relative to drug-untreated control)” value in test [1] (10 uM) came out at 0.4. `CC(=O)N[C@@H](CSc1nc2c(=O)[nH]c(N)nc2n1Cc1ccc(S(C)(=O)=O)cc1)C(=O)NCCOCCOCCOCCOCCOCCCCCCCl` [Example 39, N^2-acetyl-S-(2-amino-9-(4-(methylsulfonyl)benzyl)-6-oxo-6,9-dihydro-1H-purin-8-yl)-N-(21-chloro-3,6,9,12,15-pentaoxahenicos-1-yl)-L-cysteinamide]: the “Activity value (GFP/actin of drug-treated cells relative to drug-untreated control)” value in test [2] (1 uM) came to 0.7.
